pEC50, pIC50: −log10 of the molar value. Entries after “also recorded” stand apart in the source; their conditions may differ.
Legend:
in vitro = details: microsomes
[1] = microsomes
lethal factor (LF) = lethal factor (LF) (Bacillus anthracis, UniProt P15917); assay: biochemical; type: biochemical
[2] = test system: LF cleavage of MEK1 in HeLa cells; type: cell-based, Human
[3] = test system: RAW 264.7 macrophages, LF/PA induced cell death; assay: cells; type: cell-based, Murine; details: Mus musculus, RAW264.7, 4 h, read-out: EC50 (macrophage assay)
[4] = test system: Bacillus anthracis Sterne spores; parameters: species or system A/J mice; details: mouse, in vivo

Sequence of lethal factor (LF) (P15917 34-809 limits assumed): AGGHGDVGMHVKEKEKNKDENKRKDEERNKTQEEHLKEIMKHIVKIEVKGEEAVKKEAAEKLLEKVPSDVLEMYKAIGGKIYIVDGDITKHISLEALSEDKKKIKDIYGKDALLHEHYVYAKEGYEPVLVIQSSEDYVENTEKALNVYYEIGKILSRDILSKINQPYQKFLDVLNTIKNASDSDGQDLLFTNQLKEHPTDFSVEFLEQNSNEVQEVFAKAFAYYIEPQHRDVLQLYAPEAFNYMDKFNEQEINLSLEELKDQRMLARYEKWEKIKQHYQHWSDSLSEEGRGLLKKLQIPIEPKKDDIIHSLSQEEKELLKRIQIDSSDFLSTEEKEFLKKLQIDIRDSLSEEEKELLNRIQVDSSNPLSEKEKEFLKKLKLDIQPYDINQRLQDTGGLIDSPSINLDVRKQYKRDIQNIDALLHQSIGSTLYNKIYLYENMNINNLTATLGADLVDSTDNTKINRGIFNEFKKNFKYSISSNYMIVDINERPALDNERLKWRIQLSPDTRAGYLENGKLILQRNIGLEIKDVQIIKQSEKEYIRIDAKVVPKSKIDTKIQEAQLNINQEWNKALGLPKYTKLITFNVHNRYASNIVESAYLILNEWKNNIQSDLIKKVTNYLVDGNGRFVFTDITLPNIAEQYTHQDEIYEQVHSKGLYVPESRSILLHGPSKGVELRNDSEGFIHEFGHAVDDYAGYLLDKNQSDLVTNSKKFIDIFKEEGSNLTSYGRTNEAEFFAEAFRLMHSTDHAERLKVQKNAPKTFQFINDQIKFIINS

SMILES	Pampa	half-life (in vitro)	pIC50 (lethal factor (LF))	further results
O=S(=O)(Nc1sccc1-c1nc2ccccc2s1)c1ccc(-c2ccc(Cl)cc2)cc1 [Compound 71]	Low	> 2 h	–	–
O=S(=O)(Nc1sccc1-c1nc2ccccc2s1)c1ccc2ncsc2c1 [Compound 92, N-(3-(benzo[d]thiazol-2-yl)thiophen-2-yl)benzo[d]thiazole-6-sulfonamide]	High	> 2 h	–	Metabolic stability Hept. CLint [1]: t1/2= >120min CLint= 3.9
Nc1sccc1-c1nc2ccccc2s1 [Compound 42, reference compound]	–	–	–	inhibitory activity against LF (in words) (lethal factor (LF)): essentially inactive
COc1ccc(-c2ccc(S(=O)(=O)Nc3sc4c(c3-c3nc5ccccc5s3)CCCC4)cc2)cc1 [Compound 105]	–	–	< 4.30	–
O=S(=O)(Nc1sccc1-c1nc2ccccc2s1)c1cc(OCC(F)(F)F)ccc1OCC(F)(F)F [Compound 56, N-(3-(benzo[d]thiazol-2-yl)thiopen-2-yl)-2,5-bis(2,2,2-trifluoroethoxy)benzenesulfonamide]	–	–	4.41	–
Cc1cc(S(=O)(=O)N[C@H](C(=O)NO)C2CCOCC2)ccc1F [Compound 7]	–	–	–	protection of HeLa cells against LF cleavage of MEK1 [2]: effective
COc1ccc(-c2ccc(S(=O)(=O)Nc3sccc3-c3nc4ccccc4s3)cc2)cc1 [Compound 70]	Low	> 2 h	–	protection of HeLa cells against LF cleavage of MEK1 [2]: effective; pEC50 [3]: 6.25; Metabolic stability Hept. CLint [1]: t1/2= >120min CLint= 3.6; survival of infected mice versus DMSO control [4]: a little more effective in protecting the mice; also recorded: best survival
CSc1nccc(-c2ccc(S(=O)(=O)Nc3sccc3-c3nc4ccccc4s3)s2)n1 [Compound 99, N-(3-(benzo[d]thiazol-2-yl)thiophen-2-yl)-5-(2-(methylthio)pyrimidin-4-yl)thiophene-2-sulfonamide]	–	–	4.74	–
Cc1csc(NS(=O)(=O)c2ccc([N+](=O)[O-])cc2)c1-c1nc2ccccc2s1 [Compound 17, N-(3-(benzo[d]thiazol-2-yl)-4-methylthiophen-2-yl)-4-nitrobenzenesulfonamide]	High	> 2 h	–	Metabolic stability Hept. CLint [1]: t1/2= >120min CLint= 0.6
Cc1ccc(S(=O)(=O)Nc2sccc2-c2nc3ccccc3s2)cc1Cl [Compound 55, N-(3-(benzo[d]thiazol-2-yl)thiophen-2-yl)-3-chloro-4-methylbenzenesulfonamide]	High	> 2 h	–	survival of infected mice versus DMSO control [4]: slight improvement in comparison to the control
O=S(=O)(Nc1sc2c(c1-c1nc3ccccc3s1)CCCC2)c1ccc(-c2ccc(Cl)cc2)cc1 [Compound 106]	–	–	< 4.30	–
CNC(=O)[C@H](Cc1c[nH]c2ccccc12)NC(=O)[C@@H](CC(=O)NO)CC(C)C [Inhibitor 1, Ilomastat]	–	–	–	protection of HeLa cells against LF cleavage of MEK1 [2]: effective
